Measurements taken from US11485987B2, “Methods for inducing bioorthogonal reactivity” (University of Delaware, priority 2015, dated 2022).

Key:
APEX2 (SEQ ID NO:1) = target: T1, APEX2 (SEQ ID NO:1) (Glycine max, UniProt Q43758, A134P/E112K/K14D/W41F); assay: Oxidation of DHT by APEX2, UV-Vis initial rates and kinetic parameters; type: biochemical; details: for Initial rate of oxidation of DHT by APEX2 (SEQ ID NO: 1) / Initial rate of oxidation of DHT by APEX2 (SEQ ID NO: 1) + SOD: PBS, 100 μM EDTA, first 100 s; for Initial rate of oxidation of DHT by APEX2 (SEQ ID NO: 1) + SOD: SOD 1 μM
T1 sequence (Q43758 1-250 A134P/E112K/K14D/W41F): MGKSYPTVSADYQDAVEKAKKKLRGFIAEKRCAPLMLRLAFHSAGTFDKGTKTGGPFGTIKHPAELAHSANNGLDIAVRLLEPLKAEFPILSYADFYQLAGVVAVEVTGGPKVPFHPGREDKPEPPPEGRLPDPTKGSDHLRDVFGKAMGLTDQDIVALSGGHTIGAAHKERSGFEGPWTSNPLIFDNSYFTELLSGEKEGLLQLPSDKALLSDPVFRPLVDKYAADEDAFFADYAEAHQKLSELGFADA
Protocol: UV-Vis and fluorescence measurements were conducted in quartz cuvettes. All reactions were conducted in phosphate buffered saline (PBS) containing 100 μM EDTA with a pH=7.4. The PBS was prepared by adding 25 mM phosphate salts (Na2HPO4 and NaH2PO4), 100 mM NaCl, 100 μM EDTA to DI water. EDTA was added to quench free metals that can oxidize DHT. The buffer was pH adjusted to 7.4 using 1 mM HCl and 1 mM NaOH. UV experiments were stirred at 25° C. in a temperature-controlled cuvette holder of the spectrophotometer. Solutions of 15 or 16 were prepared from methanol stock solutions.
15 or 16 (60 μM) from methanol stock solutions was added to PBS containing 100 μM EDTA. After 10s, APEX2 (SEQ ID NO:1) (275 nM) was dosed in and oxidation was monitored at 325 nm for 15 and 285 nm for 16 at 60s intervals (FIG. 10B-C).
16 (15 μM) DHT from methanol stock solutions was added to PBS containing 100 μM EDTA. After 10s, APEX2 (SEQ ID NO:1) (275 nM) or HRP (15 nM) was dosed in and oxidation was monitored at 285 nm at 10s intervals (FIG. 10D)
SOD (1 μM) was added to PBS containing 100 μM EDTA. 15 or 16 (60 μM) was added from methanol stock solutions. After 10s, APEX2 (SEQ ID NO:1) or F41A APEX2 (275 nM) was dosed in and oxidation was monitored at 325 nm for 15 and 285 nm for 16 at 60s intervals.
The initial rate of oxidation was calculated from the first 100 seconds after APEX2 (SEQ ID NO:1) or F41A APEX2 was added ([…]). In the assays where SOD was added, SOD (1 μM) was added to PBS containing 100 μM EDTA and 15 or 16 was dosed in. 10 seconds later, APEX2 (SEQ ID NO:1) or F41A APEX2 ([…]) was added and the rate of oxidation was calculated from the first 100 seconds after APEX2 (SEQ ID NO:1) or F41A APEX2 ([…]) addition. The initial rate of oxidation was adjusted to background oxidation of DHT in PBS with 100 μM EDTA. Kinetic parameters (Table 2) were determined using GraphPad's Prism 6 software from the data presented below (Table 3-4).

ferricytochrome C = assay: Background oxidation of DHTZ by ferricytochrome C; type: biochemical; details: ferricytochrome c two orders of magnitude higher concentration than APEX2
Excerpt: Superoxide has been reported to reduce ferricytochrome C Fe(III) to ferrocytochrome C Fe(II) and O2. Superoxide production during oxidation of DHTZ by APEX2 (SEQ ID NO:1) has been detected by following the reduction of ferricytochrome C Fe(III) to ferrocytochrome C Fe(II) (λmax=550 nm) by UV-Vis spectrometry (FIG. 11C-D). Two wavelengths, 325 nm for tetrazine formation and 550 nm for ferrocytochrome c formation, were followed where reduction of ferricytochrome C by the superoxide byproduct formed during DHTZ oxidation was observed. Addition of SOD stopped the formation of ferrocytochrome C, thus confirming that superoxide is formed during oxidation of DHTZ by APEX2 (SEQ ID NO:1). A stoichiometric background oxidation of DHTZ by ferricytochrome C was observed where the rate of the oxidation of 15 by ferricytochrome c was 2× slower than APEX2 (SEQ ID NO:1) at ferricytochrome c concentrations two orders of magnitude higher than APEX2 (SEQ ID NO:1). While oxidation of DHTZ by cytochrome C is not catalytic or feasible for intracellular applications, it does confirm that DHTZ undergoes two successive one-electron oxidations as cytochrome C cannot oxidize substrates by two-electron oxidations.
15 (10 μM) from stock solution was added to PBS containing 100 μM EDTA. Ferricytochrome C (60 μM) was dosed in after 10 seconds followed by addition of APEX2 (SEQ ID NO:1) ([…]). […]

[1] = Electrochemical oxidation / cyclic voltammetry; type: physicochemical; details: phosphate buffer pH 7.0, vs Ag/AgCl reference
Protocol: Compound 3a has a maximum in the UV-vis spectrum at 292 nm, and 4a has a maximum at 325 nm with a less intense peak at 525 nm (FIG. 2). […] This isosbestic point was also conserved in the photocatalytic and enzymatic (FIG. 2) oxidations of 3a described below, and the spectroscopic changes at 292 and 325 nm were routinely used for monitoring reaction progress.
All electrochemistry was performed using a CHI-620D potentiostat/galvanostat. Cyclic voltammetry was performed using a standard three-electrode configuration. CV scans were recorded for quiescent solutions using a platinum disk working electrode (2.0 mm diameter CH Instruments) and a platinum wire auxiliary electrode. All potentials were measured against a Ag/AgCl reference electrode (CH Instruments, 1 M KCl). CV and DPV experiments were performed in a nitrogen saturated 0.1 M potassium phosphate (KH2PO4) buffered solution at pH 7.0. The concentration of the analyte was 1.0 mM for all experiments.

Structure (SMILES): O=C(O)CCCC(=O)Nc1ccc(C2=NNC(c3ccccn3)=NN2)nc1 [compound 15]
- rate of catalysis by APEX2 slower than by HRP (APEX2 (SEQ ID NO:1); APEX2 versus HRP (FIG. 10D)): approximately 100 ×
- Initial rate of oxidation of DHT by APEX2 (SEQ ID NO: 1) (APEX2 (SEQ ID NO:1); DHT 5 μM): 0.903 +/− 0.026 ×10^−8 M/s
- Initial rate of oxidation of DHT by APEX2 (SEQ ID NO: 1) + SOD (APEX2 (SEQ ID NO:1); DHT 6 μM): 1.104 +/− 0.028 ×10^−8 M/s
- Initial rate of oxidation of DHT by APEX2 (SEQ ID NO: 1) (APEX2 (SEQ ID NO:1); DHT 10 μM): 1.286 +/− 0.141 ×10^−8 M/s
- Initial rate of oxidation of DHT by APEX2 (SEQ ID NO: 1) + SOD (APEX2 (SEQ ID NO:1); DHT 12 μM): 1.831 +/− 0.169 ×10^−8 M/s
- Initial rate of oxidation of DHT by APEX2 (SEQ ID NO: 1) (APEX2 (SEQ ID NO:1); DHT 15 μM): 1.442 +/− 0.298 ×10^−8 M/s
- Initial rate of oxidation of DHT by APEX2 (SEQ ID NO: 1) + SOD (APEX2 (SEQ ID NO:1); DHT 15 μM): 1.765 +/− 0.172 ×10^−8 M/s
- Initial rate of oxidation of DHT by APEX2 (SEQ ID NO: 1) (APEX2 (SEQ ID NO:1); DHT 20 μM): 1.872 +/− 0.028 ×10^−8 M/s
- Initial rate of oxidation of DHT by APEX2 (SEQ ID NO: 1) + SOD (APEX2 (SEQ ID NO:1); DHT 20 μM): 2.166 +/− 0.201 ×10^−8 M/s
- Initial rate of oxidation of DHT by APEX2 (SEQ ID NO: 1) (APEX2 (SEQ ID NO:1); DHT 25 μM): 1.628 +/− 0.133 ×10^−8 M/s
- Initial rate of oxidation of DHT by APEX2 (SEQ ID NO: 1) + SOD (APEX2 (SEQ ID NO:1); DHT 25 μM): 2.937 +/− 0.487 ×10^−8 M/s
- Initial rate of oxidation of DHT by APEX2 (SEQ ID NO: 1) (APEX2 (SEQ ID NO:1); DHT 30 μM): 1.878 +/− 0.055 ×10^−8 M/s
- Initial rate of oxidation of DHT by APEX2 (SEQ ID NO: 1) + SOD (APEX2 (SEQ ID NO:1); DHT 30 μM): 2.418 +/− 0.038 ×10^−8 M/s
- Initial rate of oxidation of DHT by APEX2 (SEQ ID NO: 1) (APEX2 (SEQ ID NO:1); DHT 40 μM): 2.305 +/− 0.101 ×10^−8 M/s
- Initial rate of oxidation of DHT by APEX2 (SEQ ID NO: 1) + SOD (APEX2 (SEQ ID NO:1); DHT 40 μM): 3.230 +/− 0.348 ×10^−8 M/s
- Initial rate of oxidation of DHT by APEX2 (SEQ ID NO: 1) (APEX2 (SEQ ID NO:1); DHT 50 μM): 2.445 +/− 0.303 ×10^−8 M/s
- Initial rate of oxidation of DHT by APEX2 (SEQ ID NO: 1) + SOD (APEX2 (SEQ ID NO:1); DHT 50 μM): 3.305 +/− 0.436 ×10^−8 M/s
- Initial rate of oxidation of DHT by APEX2 (SEQ ID NO: 1) (APEX2 (SEQ ID NO:1); DHT 60 μM): 2.603 +/− 0.306 ×10^−8 M/s
- Initial rate of oxidation of DHT by APEX2 (SEQ ID NO: 1) + SOD (APEX2 (SEQ ID NO:1); DHT 60 μM): 4.169 +/− 0.242 ×10^−8 M/s
- Initial rate of oxidation of DHT by APEX2 (SEQ ID NO: 1) (APEX2 (SEQ ID NO:1); DHT 70 μM): 3.197 +/− 0.025 ×10^−8 M/s
- Initial rate of oxidation of DHT by APEX2 (SEQ ID NO: 1) (APEX2 (SEQ ID NO:1); DHT 75 μM): 3.460 +/− 0.492 ×10^−8 M/s
- Initial rate of oxidation of DHT by APEX2 (SEQ ID NO: 1) + SOD (APEX2 (SEQ ID NO:1); DHT 75 μM): 4.196 +/− 0.444 ×10^−8 M/s
- Initial rate of oxidation of DHT by APEX2 (SEQ ID NO: 1) (APEX2 (SEQ ID NO:1); DHT 85 μM): 3.978 +/− 0.119 ×10^−8 M/s
- Initial rate of oxidation of DHT by APEX2 (SEQ ID NO: 1) + SOD (APEX2 (SEQ ID NO:1); DHT 85 μM): 4.939 +/− 0.202 ×10^−8 M/s
- rate of oxidation by ferricytochrome c slower than APEX2 (ferricytochrome C): 2 ×

Structure (SMILES): O=C(O)CCC(=O)Nc1ccc(C2=NNC(c3ccccn3)=NN2)nc1 [3a, 4-oxo-4-((6-(6-(pyridin-2-yl)-1,4-dihydro-1,2,4,5-tetrazin-3-yl)pyridin-3-yl)amino)butanoic Acid]
- voltammogram peak (electrochemical oxidation) [1]: 0.02 V
